# Data reported in US10648979B2, “Molecular probes for detecting gram-negative bacteria in vitro and in vivo” (priority 2014, dated 2020).
# Entries after “also recorded” stand apart in the source; their conditions may differ. Bridge positions count the residues as written; N and C are the ends. Square brackets hold non-standard residues; d marks the D form. Peptide text beside a SMILES is read from it. * marks the point of attachment. ξ: configuration not given here. NBD = O=[N+]([O-])c1ccc(*)c2nonc12; dDab = NCC[C@@H](N)C(=O)O; Dab = NCC[C@H](N)C(=O)O; AEEA = NCCOCCOCC(=O)O; ξDab = NCCC(N)C(=O)O
# Tests used:
# [1] = Emission spectra of probes in PBS or DMSO (hydrophobic environment); assay type: physicochemical; details: excited at 488 nm; NBD-UBIdend 5 μM, NBD-UBINle 15 μM, NBD-PMX 10 μM
# Description: A) Emission spectra shown for NBD-UBIdend (5 μM) and NBD-UBINle (15 μM) in the presence of PBS or DMSO (hydrophobic environment) when excited at 488 nm wavelength. B) Emission spectra shown for NBD-PMX (10 μM) in the presence of PBS or DMSO (hydrophobic environment) when excited at 488 nm wavelength. The fluorescence of both probes greatly increases under hydrophobic conditions as would be present upon binding to the bacterial membrane target.
# To confirm the fluorescent reporter NBD retains its characteristics when coupled with our peptide moieties we measured the fluorescence of the compounds in conditions to mimic a hydrophobic environment (DMSO).
# [2] = test system: panel of bacteria (Gram-negative and Gram-positive); experiment: Flow cytometry of bacterial labelling; assay type: cell-based
# Description: FIG. 7: NBD-UBIdend labels bacteria selectively over mammalian cells in vitro: A) Example images of a clinically relevant bacterial panel with NBD-UBIdend (5 μM; green) counterstained with the fluorescent generic cellular DNA dye Syto-82 (red) imaged by laser scanning confocal microscopy. B) Quantification of bacterial panel labelling NBD-UBIdend 5 μM (optimal concentration) where every bacteria in the panel is brighter when compared with MSSA and NBD-UBINle 10 μM (optimal concentration) C) Flow cytometry data with unstained bacteria (red), NBD-UBINle 15 μM (blue) and NBD-UBIdend 5 μM labelled bacteria (orange). […] Representative images shown, n≥3 for all experiments.
# FIG. 8: NBD-PMX selectively labels Gram-negative bacteria in vitro. Example images of the bacterial panel with NBD-PMX imaged by laser scanning confocal microscopy. A) Bacterial panel with NBD-PMX 1 μM (green) and counterstain with syto-82 (red). […] C) Flow cytometric evaluation of bacterial labelling with NBD-PMX showing unstained bacteria (red) and NBD-PMX (blue) labelled bacteria. […] Representative images shown, n≥3 for all experiments.
# Bacteria were prepared and counterstained with Syto 82 nucleic acid stain (Invitrogen, Calif., USA) in a shaking heat block at 37° C. and 350 rpm for 20 minutes. […] This was diluted to 500 uL and analysed using BD FACS Calibur using FL-1 and FL-2 channels, with 10,000 events. […]
# [3] = test system: human neutrophils; experiment: Labelling of isolated human neutrophils (confocal); assay type: cell-based
# Description: (§1) All compounds have undergone biological assessment.
# (§2) Bacteria were prepared and counterstained with Syto 82 nucleic acid stain (Invitrogen, Calif., USA) in a shaking heat block at 37° C. and 350 rpm for 20 minutes. They were co-incubated with the probe at required concentration in a sealed POC mini chamber, or 8 well confocal chamber. When required the glass coverslip for the POC chamber was coated in fibronectin (for neutrophil experiments) or poly-d-lysine (for bacteria and cell lines) and incubated with cells with one hour at 37° C. to allow adherence prior to bacterial innoculation. Analysis was with ImageJ. Briefly, the Syto channel was automatically thresholded (Huang) and an ROI generated from this. The mean fluorescence intensity on the probe channel within this ROI was quantified. Data presented represents the mean of three separate fields of view.
# [4] = test system: A549 cells; experiment: Labelling of A549 cells (confocal); assay type: cell-based, human
# Description: as §1
# A549 cells were grown in Dulbecco's modified Eagle's medium (DMEM) supplemented with 10% fetal bovine serum (FBS), 2 mM L-glutamine, 100 units/mL penicillin G and 100 μg/mL streptomycin to 80% confluence. Cells were dispersed with Trypsin-EDTA and seeded onto glass coverslips or 8 well confocal imaging chambers and grown to confluence in the presence of DMEM.
# as §2
# [5] = test system: pre-labelled bacteria in ovine lung; experiment: Pre-labelled bacteria instilled into the ovine lung and imaged by FCFM
# From the text: FIG. 14: NBD-UBIdend and NBD-PMX are resistant to ‘wash off’ allowing detection of bacteria in the ovine lung. […] However, when bacteria pre-labelled with linear NBD-UBINle are instilled, no punctate signal is seen. Labelling was confirmed by imaging bacterial suspensions (left hand panels) before instillation into the lung and imaging by FCFM (right hand panels). Note the lower SNR for NBD-UBINle labelled bacteria in suspension. Representative images shown, n=3 for each experiment.
# (§3) In the distal lung, there is likely to be significant and rapid dissipation of the probes immediately after delivery. Therefore, it is imperative that probe-bacterial labelling remains persistent under these conditions. […] As such, this resistance to ‘wash-off’ represents a surrogate indicator of probe-bacterial affinity which appears to be an absolute requirement for distal lung in situ labelling.
# We have obtained evidence that the wash-off properties of the probes, most likely related to affinity and/or the nature of subsequent insertion into the bacterial membrane, impact on whether or not they can be used to successfully image in the lung. The retention of labelling upon removal of probe solution was investigated in vitro by confocal. With all of the linear UBI variants labelling was lost completely upon wash-off. […]
# [6] = test system: bacterial panel; experiment: Retention of labelling upon wash-off (PBS wash) in vitro by confocal; assay type: cell-based
# From the text: FIG. 15: NBD-UBIdend retains fluorescence when wash performed. A) The bacterial panel was imaged by laser scanning confocal microscopy in the continued presence of NBD-UBIdend (black) and following PBS wash (white).
# as §3
# We have obtained evidence that the wash-off properties of the probes, most likely related to affinity and/or the nature of subsequent insertion into the bacterial membrane, impact on whether or not they can be used to successfully image in the lung. The retention of labelling upon removal of probe solution was investigated in vitro by confocal. With all of the linear UBI variants labelling was lost completely upon wash-off. […] Bacteria were pre-labelled with these linear NBD-UBINle compounds and successful labelling was confirmed by imaging the bacterial suspension pre-instillation.
# [7] = test system: PA3284; experiment: Bacterial labelling in the presence or absence of ovine lavage (confocal); assay type: cell-based, Pseudomonas aeruginosa; details: 1 μM
# [8] = test system: bacteria over lung surfactant constituents; experiment: Bacterial labelling in the presence of lung surfactant constituents (confocal); assay type: cell-based
# Description: Ratio of bacterial fluorescence intensity:surfactant fluorescent intensity quantified from confocal microscopy images.
# In vitro experiments were conducted using lung surfactant constituents to investigate the ability of probes to preferentially detect bacteria in the presence of large amounts of surfactant. […] A suspension of surfactant constituents in buffered saline was prepared (20 mg/ml, 65% dipalmitoylphosphatidylcholine, 30% phosphatidylglycerol, 5% palmitic acid with 1 mg/ml tyloxapol as a spreading agent) and incubated with and without A549 epithelial cell monolayer.
# Surfactant 5 μg 1,2-Dipalmitoyl-sn-glycero-3-phosphocholine (DPPC) and 2.5 μg L-α-Phosphatidyl-DL-glycerol sodium salt (from egg yolk lecithin; PG) were dissolved in 500 μl chloroform and evaporated under nitrogen to a thin lipid film in a round bottom flask. The lipid film was rehydrated with PBS at 48° C. for 1 hour with agitation (750 rpm) to generate multilammelar vesicles (MLV). These were diluted 1:4 for use in confocal experiments.
# [9] = test system: bacteria on human lung tissue; experiment: Detection of bacteria in the presence of human lung tissue autofluorescence (FCFM, confocal, FLIM); details: FCFM and benchtop confocal
# From the text: FIG. 21: Bacteria detected in the presence of human lung tissue autofluorescence. […] B) Live confocal microscopy images (merge) showing merge images of nucleic acid counterstain (red) with no NBD-PMX labelling. Bacteria in right panel can be clearly seen, labelled with NBD-PMX and above the background fluorescence.
# FIG. 24: Fluorescence Life Time Imaging easily distinguishes lung tissue from bacteria. […] Imaging performed using NBD-UBIdend and S. aureus on human lung tissue.
# [10] = water
# [11] = room temperature
# [12] = test system: human erythrocytes; experiment: Haemolysis assay; details: up to 100 μM; 0.2% Triton-X = 100%
# Description: Positive control was 0.2% Triton-X and values corrected to represent 100% haemolysis for Triton-X.
# Erythrocytes were isolated from freshly drawn, anticoagulated human blood and resuspended to 20 vol % in PBS (pH 7.4). In a 96-well microtiter plate, 100 μl of erythrocyte suspension was added to 100 μl of NLLP solution in PBS (prepared by 1:2 serial dilutions) or 100 μl of PBS in the case of negative controls. One-hundred percent haemolysis wells contained 100 μl of red cell suspension with 100 μl of 0.2 vol % Triton X-100. The plate was incubated for 1 h at 37° C., and then each well was diluted with 150 μl of PBS. The plate was then centrifuged at 1,200 g for 15 min, 100 μl of the supernatant from each well was transferred to a fresh microtiter plate, and A350 was measured. Percentage of haemolysis was determined as (A−A0)/(Atotal−A0)×100, where A is the absorbance of the test well, A0 the absorbance of the negative controls, and Atotal the absorbance of 100% haemolysis wells, all at 350 nm on a Biotek plate reader.
smiles,measurement,setting,value
CC(C)C[C@@H]1NC(=O)[C@@H](Cc2ccccc2)NC(=O)[C@@H](CCN)NC(=O)C(NC(=O)[C@H](CCN)NC(=O)[C@@H](NC(=O)COCCOCCNc2ccc([N+](=O)[O-])c3nonc23)[C@@H](C)O)CCNC(=O)[C@@H]([C@H](C)O)NC(=O)[C@H](CCN)NC(=O)[C@H](CCN)NC1=O (stereo partly shown) [NBD-PMX] ({NBD-AEEA}-T[Dab][ξDab][dDab][dF]L[Dab][Dab][dT]; lactam 3-C),fluorescence in DMSO compared to PBS,[1],significant increase in fluorescence
same,labelling of Gram-positive bacteria by flow cytometry,[2],No significant labelling of Gram-positive bacteria
same,labelling of human neutrophils,[3],no labelling of human neutrophils or A549 cells
same,labelling of A549 cells,[4],retains selectivity of labeling over mammalian cells; also recorded: no labelling of human neutrophils or A549 cells
same,detection of pre-labelled bacteria after instillation,[5],readily visualised
same,retention of labelling upon wash-off,[6],resistant to wash-off
same,fluorescence in ovine lavage versus absence of lavage,[7],no significant reduction of fluorescence intensity
same,selectivity for bacterial labelling over lung surfactant constituents,[8],possess selectivity for bacterial labelling over lung surfactant constituents
same,bacterial:surfactant fluorescence intensity compared with linear NBD-UBINle,[8]; equimolar NBD concentrations,significantly higher bacterial: surfactant intensity than NBD-UBInle
same,detection of bacteria above human lung autofluorescence,[9],demonstrating bacterial signal
same,Solubility,[10],Fully soluble in water
same,Stability,[11],> 1 week
same,red cell haemolysis,[12],no red cell haemolysis
